These compounds were tested on DND-41 (assay: selective drug sensitivity score (sDSS, relative to normal bone marrow) (sDSS (score)); higher = more potent and effective on the cell line relative to normal bone marrow cells). Details: 72 h.
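Note: ALL cell lines in 384-well plates, five doses spanning 10,000-fold, each plate scaled between vehicle and 100 µmol/L benzalkonium chloride controls, sDSS an adapted area-under-curve metric.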

Row | Compound | selective drug sensitivity score
1 | O=c1sn(-c2cccc3ccccc23)c(=O)n1Cc1ccccc1 [Tideglusib] (top concentration 3000 nM) | 3.4
2 | COc1cc2nccc(Oc3ccc(NC(=O)Nc4cc(C)on4)c(Cl)c3)c2cc1OC [Tivozanib] (top concentration 10000 nM) | 0.36
3 | Cc1cc(Nc2cc(N3CCN(C)CC3)nc(Sc3ccc(NC(=O)C4CC4)cc3)n2)n[nH]1 [Tozasertib] (top concentration 10000 nM) | 0.36
4 | CC1=C(/C=C/C(C)=C/C=C/C(C)=C/C(=O)O)C(C)(C)CCC1 [Tretinoin] (top concentration 10000 nM) | -2.4
5 | COC(=O)c1ccc2c(c1)[nH]c1ncnc(NCCCN3CCCCC3)c12 [UM729] (top concentration 10000 nM) | 0.64
6 | COc1cc2c(NC3CCN(C(C)C)CC3)nc(N3CCC(F)(F)CC3)nc2cc1OCCCN1CCCC1 [UNC0642] (top concentration 10000 nM) | 5.56
7 | O=C(c1ccc(C(=O)N2CCC(N3CCCC3)CC2)c(Nc2ccccc2)c1)N1CCC(N2CCCC2)CC1 [UNC1215] (top concentration 10000 nM) | 0
8 | CCCC(CCC)C(=O)O [Valproic_acid] (top concentration 1000000 nM) | 0
9 | Clc1ccc(Nc2nnc(Cc3ccncc3)c3ccccc23)cc1 [Vatalanib] (top concentration 10000 nM) | 0
10 | CCCS(=O)(=O)Nc1ccc(F)c(C(=O)c2c[nH]c3ncc(-c4ccc(Cl)cc4)cc23)c1F [Vemurafenib] (top concentration 10000 nM) | 3.66

These compounds were tested on PEER in the same assay as above. Details: 72 h.

Row | Compound | selective drug sensitivity score
11 | NCCNc1ccc(NCCN)c2c1C(=O)c1ccncc1C2=O [Pixantrone] (top concentration 10000 nM) | -2.76
12 | c1cc(CN2CCCNCCNCCCNCC2)ccc1CN1CCCNCCNCCCNCC1 [Plerixafor] (top concentration 10000 nM) | 0
13 | O=C(c1ccc(OCCN2CCCCC2)cc1)c1c(-c2ccc(O)cc2)sc2cc(O)ccc12 [Raloxifene] (top concentration 10000 nM) | 0.82
14 | CN(C)C(=O)c1cc2cnc(Nc3ccc(N4CCNCC4)cn3)nc2n1C1CCCC1 [Ribociclib] (top concentration 10000 nM) | 3.18
15 | CN1CCN(CCOc2cc(OC3CCOCC3)c3c(Nc4c(Cl)ccc5c4OCO5)ncnc3c2)CC1 [Saracatinib] (top concentration 10000 nM) | 7.38
16 | C=CC(=O)Nc1cccc(Nc2nc(Nc3ccc(OCCOC)cc3)ncc2F)c1 [Spebrutinib] (top concentration 1000 nM) | 0.74
17 | C[C@@H]1CN(Cc2ccc(F)cc2)[C@@H](C)CN1C(=O)c1cc2c(C(=O)C(=O)N(C)C)cn(C)c2cc1Cl [Talmapimod] (top concentration 10000 nM) | 0
18 | C[C@@H](C(=O)O)c1ccc(-c2ccccc2)c(F)c1 [Tarenflurbil] (top concentration 10000 nM) | -0.16
19 | CNC(=O)c1cc(COc2nnc(Nc3ccc(Cl)cc3)c3ccoc23)ccn1 [Telatinib] (top concentration 10000 nM) | 0
20 | O=c1sn(-c2cccc3ccccc23)c(=O)n1Cc1ccccc1 [Tideglusib] (top concentration 3000 nM) | -0.3
21 | COc1cc2nccc(Oc3ccc(NC(=O)Nc4cc(C)on4)c(Cl)c3)c2cc1OC [Tivozanib] (top concentration 10000 nM) | 12.2
22 | Cc1cc(Nc2cc(N3CCN(C)CC3)nc(Sc3ccc(NC(=O)C4CC4)cc3)n2)n[nH]1 [Tozasertib] (top concentration 10000 nM) | 22.6
23 | CC1=C(/C=C/C(C)=C/C=C/C(C)=C/C(=O)O)C(C)(C)CCC1 [Tretinoin] (top concentration 10000 nM) | -2.4
24 | COC(=O)c1ccc2c(c1)[nH]c1ncnc(NCCCN3CCCCC3)c12 [UM729] (top concentration 10000 nM) | 1.84
25 | COc1cc2c(NC3CCN(C(C)C)CC3)nc(N3CCC(F)(F)CC3)nc2cc1OCCCN1CCCC1 [UNC0642] (top concentration 10000 nM) | -0.74
26 | O=C(c1ccc(C(=O)N2CCC(N3CCCC3)CC2)c(Nc2ccccc2)c1)N1CCC(N2CCCC2)CC1 [UNC1215] (top concentration 10000 nM) | 0
27 | CCCC(CCC)C(=O)O [Valproic_acid] (top concentration 1000000 nM) | 0
28 | Clc1ccc(Nc2nnc(Cc3ccncc3)c3ccccc23)cc1 [Vatalanib] (top concentration 10000 nM) | 0.7
29 | CCCS(=O)(=O)Nc1ccc(F)c(C(=O)c2c[nH]c3ncc(-c4ccc(Cl)cc4)cc23)c1F [Vemurafenib] (top concentration 10000 nM) | 2.56

Each compound was assayed on 380 in the same assay as above. Details: 72 h.

Row | Compound | selective drug sensitivity score
30 | NCCNc1ccc(NCCN)c2c1C(=O)c1ccncc1C2=O [Pixantrone] (top concentration 10000 nM) | -2.76
31 | c1cc(CN2CCCNCCNCCCNCC2)ccc1CN1CCCNCCNCCCNCC1 [Plerixafor] (top concentration 10000 nM) | 0
32 | O=C(c1ccc(OCCN2CCCCC2)cc1)c1c(-c2ccc(O)cc2)sc2cc(O)ccc12 [Raloxifene] (top concentration 10000 nM) | -2.28
33 | CN(C)C(=O)c1cc2cnc(Nc3ccc(N4CCNCC4)cn3)nc2n1C1CCCC1 [Ribociclib] (top concentration 10000 nM) | -2.02
34 | CN1CCN(CCOc2cc(OC3CCOCC3)c3c(Nc4c(Cl)ccc5c4OCO5)ncnc3c2)CC1 [Saracatinib] (top concentration 10000 nM) | -2.02
35 | C=CC(=O)Nc1cccc(Nc2nc(Nc3ccc(OCCOC)cc3)ncc2F)c1 [Spebrutinib] (top concentration 1000 nM) | -0.16
36 | C[C@@H]1CN(Cc2ccc(F)cc2)[C@@H](C)CN1C(=O)c1cc2c(C(=O)C(=O)N(C)C)cn(C)c2cc1Cl [Talmapimod] (top concentration 10000 nM) | 0
37 | C[C@@H](C(=O)O)c1ccc(-c2ccccc2)c(F)c1 [Tarenflurbil] (top concentration 10000 nM) | -0.16
38 | CNC(=O)c1cc(COc2nnc(Nc3ccc(Cl)cc3)c3ccoc23)ccn1 [Telatinib] (top concentration 10000 nM) | 0
39 | O=c1sn(-c2cccc3ccccc23)c(=O)n1Cc1ccccc1 [Tideglusib] (top concentration 3000 nM) | -0.3
40 | COc1cc2nccc(Oc3ccc(NC(=O)Nc4cc(C)on4)c(Cl)c3)c2cc1OC [Tivozanib] (top concentration 10000 nM) | -3.64
41 | Cc1cc(Nc2cc(N3CCN(C)CC3)nc(Sc3ccc(NC(=O)C4CC4)cc3)n2)n[nH]1 [Tozasertib] (top concentration 10000 nM) | 19.2
42 | CC1=C(/C=C/C(C)=C/C=C/C(C)=C/C(=O)O)C(C)(C)CCC1 [Tretinoin] (top concentration 10000 nM) | 1.7
43 | COC(=O)c1ccc2c(c1)[nH]c1ncnc(NCCCN3CCCCC3)c12 [UM729] (top concentration 10000 nM) | 5.74
44 | COc1cc2c(NC3CCN(C(C)C)CC3)nc(N3CCC(F)(F)CC3)nc2cc1OCCCN1CCCC1 [UNC0642] (top concentration 10000 nM) | 0.86
45 | O=C(c1ccc(C(=O)N2CCC(N3CCCC3)CC2)c(Nc2ccccc2)c1)N1CCC(N2CCCC2)CC1 [UNC1215] (top concentration 10000 nM) | 0
46 | CCCC(CCC)C(=O)O [Valproic_acid] (top concentration 1000000 nM) | 0
47 | Clc1ccc(Nc2nnc(Cc3ccncc3)c3ccccc23)cc1 [Vatalanib] (top concentration 10000 nM) | 0
48 | CCCS(=O)(=O)Nc1ccc(F)c(C(=O)c2c[nH]c3ncc(-c4ccc(Cl)cc4)cc23)c1F [Vemurafenib] (top concentration 10000 nM) | -1.14

From the supplement of paper PMC8967900
